Structures are written as SMILES.

The target in experiment [1] is T1, MAGL (recombinant wild-type) (Homo sapiens, UniProt Q99685).
T1 sequence (Q99685 1-303): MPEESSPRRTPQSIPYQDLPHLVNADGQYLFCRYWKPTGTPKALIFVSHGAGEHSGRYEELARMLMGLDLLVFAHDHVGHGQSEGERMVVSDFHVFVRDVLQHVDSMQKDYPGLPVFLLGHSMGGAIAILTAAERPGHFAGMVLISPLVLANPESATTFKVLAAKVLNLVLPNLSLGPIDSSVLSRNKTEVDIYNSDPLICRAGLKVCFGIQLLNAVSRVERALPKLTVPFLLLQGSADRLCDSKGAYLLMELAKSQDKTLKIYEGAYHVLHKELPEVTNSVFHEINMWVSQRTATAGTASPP
The experiment in a line: 4-NPA assay: MAGL inhibition followed by hydrolysis of 4-nitrophenylacetate, absorbance at 405 nm. It counts as biochemical. The settings on record: measured in 4-NPA assay (footnote [b]); 1 nM MAGL, 300 μM 4-nitrophenylacetate. The method, then:
Compounds were profiled for MAGL inhibitory activity by measuring the enzymatic activity of MAGL by following the hydrolysis of 4-nitrophenylacetate resulting in 4-nitrophenol, which absorbs at 405-412 nm (G. G. Muccioli, G. Labar, D. M. Lambert, Chem. Bio. Chem. 2008, 9, 2704-2710). This assay is hereinafter abbreviated “4-NPA assay”.
The 4-NPA assay was carried out in 384 well assay plates (black with clear bottom, non-binding surface treated, Corning Ref. 3655) in a total volume of 40 μL. Compound dilutions were made in 100% DMSO (VWR Chemicals 23500.297) in a polypropylene plate in 3-fold dilution steps to give a final concentration range in the assay from 25 μM to 1.7 nM. 1 μL compound dilutions (100% DMSO) were added to 19 μL MAGL (recombinant wild-type) in assay buffer (50 mM TRIS (GIBCO, 15567-027), 1 mM EDTA (Fluka, 03690-100 mL)). The plate was shaked for 1 min at 2000 rpm (Variomag Teleshake) and then incubated for 15 min at RT. To start the reaction, 20 μL 4-Nitrophenlyacetate (Sigma N-8130) in assay buffer with 6% EtOH was added. The final concentrations in the assay were 1 nM MAGL and 300 μM 4-Nitrophenylacetate. After shaking (1 min, 2000 rpm) and 5 min incubation at RT, the absorbance at 405 nm was measured for a fist time (Molecular Devices, SpectraMax Paradigm). A second measurement was then done after incubation for 80 min at RT. From the two measurements, the slope was calculated by subtracting the first from the second measurement.

The target in experiment [2] is T2, MAGL (Homo sapiens, UniProt Q99685).
T2 sequence (Q99685 1-303): T1 sequence (Q99685 1-303)
The experiment in a line: 2-AG assay: MAGL inhibition followed by hydrolysis of 2-arachidonoylglycerol to arachidonic acid, mass spectrometry. It counts as biochemical. The note with it: measured in 2-AG assay (footnote [a]); substrate 2-arachidonoylglycerol 8 μM, 30 min at RT. In a few lines:
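Test compounds (final […], 3-fold steps) preincubated 15 min at RT with […] in 50 mM Tris, 1 mM EDTA, 0.01% Tween; 8 μM 2-arachidonoylglycerol then added for 30 min at RT. Acetonitrile quench; arachidonic acid measured by RapidFire SPE–MS/MS, activity from arachidonic acid/d8-arachidonic acid ratio.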

On to `O=C1CO[C@H]2CCN(C(=O)N3CCC(C(=O)N(CCO)Cc4ccccc4)CC3)C[C@H]2N1` [Example 63, N-Benzyl-N-(2-hydroxyethyl)-1-((4aR,8aS)-3-oxooctahydro-2H-pyrido[4,3-b][1,4]oxazine-6-carbonyl)piperidine-4-carboxamide], for which the IC50 (usually the concentration at which inhibition is half-maximal) in experiment [1] is 4400 nM. Still for that read-out and setting: in the case of `CN(C(=O)c1ccc(C(F)(F)F)cc1)C1CCN(C(=O)N2CC[C@@H]3OCC(=O)N[C@@H]3C2)CC1` [Example 85, N-[1-[(4aR,8aS)-3-oxo-4,4a,5,7,8,8a-hexahydropyrido[4,3-b][1,4]oxazine-6-carbonyl]piperidin-4-yl]-N-methyl-4-(trifluoromethyl)benzamide] it was 1990 nM. The same measure, in the same setting: in the case of `CN(C(=O)Cc1cccc(C(F)(F)F)c1)C1CCN(C(=O)N2CC[C@@H]3OCC(=O)N[C@@H]3C2)CC1` [Example 86, N-[1-[(4aR,8aS)-3-oxo-4,4a,5,7,8,8a-hexahydropyrido[4,3-b][1,4]oxazine-6-carbonyl]piperidin-4-yl]-N-methyl-2-[3-(trifluoromethyl)phenyl]acetamide] it was 519 nM. Same read-out and setting: in the case of `O=C1CO[C@H]2CCN(C(=O)N3CCC(C(=O)NCc4ccccc4)CC3)C[C@H]2N1` [Example 65, N-Benzyl-1-((4aR,8aS)-3-oxooctahydro-2H-pyrido[4,3-b][1,4]oxazine-6-carbonyl)piperidine-4-carboxamide] it was 2900 nM. For `Cc1cccc(Cl)c1C#CC1CN(C(=O)N2CC[C@@H]3OCC(=O)N[C@@H]3C2)C1` [Example 184, (4aR,8aS)-6-[3-[2-(2-Chloro-6-methylphenyl)ethynyl]azetidine-1-carbonyl]-4,4a,5,7,8,8a-hexahydropyrido[4,3-b][1,4]oxazin-3-one], the IC50 in experiment [2] was determined as 6 nM. Same read-out and setting: in the case of `O=C1CO[C@H]2CCN(C(=O)N3CC(C#Cc4c(F)cc(C(F)(F)F)cc4Cl)C3)C[C@H]2N1` [Example 189, (4aR,8aS)-6-[3-[2-[2-Chloro-6-fluoro-4-(trifluoromethyl)phenyl]ethynyl]azetidine-1-carbonyl]-4,4a,5,7,8,8a-hexahydropyrido[4,3-b][1,4]oxazin-3-one] it was 1 nM. The same measure, in the same setting: under `O=C1CO[C@H]2CCN(C(=O)N3CC(C#Cc4c(F)cccc4F)C3)C[C@H]2N1` [Example 159, (4aR,8aS)-6-(3-((2,6-Difluorophenyl)ethynyl)azetidine-1-carbonyl)hexahydro-2H-pyrido[4,3-b][1,4]oxazin-3(4H)-one] stands 34 nM; under `O=C1CO[C@H]2CCN(C(=O)N3CC(C#Cc4ccc(C(F)(F)F)c(Cl)c4)C3)C[C@H]2N1` [Example 160, (4aR,8aS)-6-(3-((3-Chloro-4-(trifluoromethyl)phenyl)ethynyl)azetidine-1-carbonyl)hexahydro-2H-pyrido[4,3-b][1,4]oxazin-3(4H)-one], 1 nM; under `O=C1CO[C@H]2CCN(C(=O)N3CC(C#Cc4ccccc4C(F)F)C3)C[C@H]2N1` [Example 182, (4aR,8aS)-6-[3-[2-[2-(Difluoromethyl)phenyl]ethynyl]azetidine-1-carbonyl]-4,4a,5,7,8,8a-hexahydropyrido[4,3-b][1,4]oxazin-3-one], 14 nM. Still for that read-out and setting: under `N#CC1(c2ccc(C#CC3CN(C(=O)N4CC[C@@H]5OCC(=O)N[C@@H]5C4)C3)cc2)CC1` [Example 178, 1-[4-[2-[1-[(4aR,8aS)-3-Oxo-4,4a,5,7,8,8a-hexahydropyrido[4,3-b][1,4]oxazine-6-carbonyl]azetidin-3-yl]ethynyl]phenyl]cyclopropane-1-carbonitrile] stands 56 nM.

`CN(c1ccc(C(F)(F)F)cc1)C1CCN(C(=O)N2CC[C@@H]3OCC(=O)N[C@@H]3C2)CC1` (racemic) [Example 136, rac-(4aR,8aS)-6-[4-[N-methyl-4-(trifluoromethyl)anilino]piperidine-1-carbonyl]-4,4a,5,7,8,8a-hexahydropyrido[4,3-b][1,4]oxazin-3-one]: in experiment [2], the IC50 came out at 22 nM. The same measure, in the same setting: in the case of `Cc1ccccc1C#CC1CN(C(=O)N2CC[C@@H]3OCC(=O)N[C@@H]3C2)C1` [Example 173, (4aR,8aS)-6-(3-(o-Tolylethynyl)azetidine-1-carbonyl)hexahydro-2H-pyrido[4,3-b][1,4]oxazin-3(4H)-one] it was 10 nM. Regarding `CC1(C#Cc2ccc(Cl)cc2Cl)CCN(C(=O)N2CC[C@@H]3OCC(=O)N[C@@H]3C2)CC1` [Example 196, (4aR,8aS)-6-(4-((2,4-Dichlorophenyl)ethynyl)-4-methylpiperidine-1-carbonyl)hexahydro-2H-pyrido[4,3-b][1,4]oxazin-3(4H)-one], in experiment [2], the IC50 was 92 nM. On the same count and under the same terms, under `O=C1CO[C@H]2CCN(C(=O)N3CC(C#Cc4ccccc4OC(F)F)C3)C[C@H]2N1` [Example 175, (4aR,8aS)-6-[3-[2-[2-(Difluoromethoxy)phenyl]ethynyl]azetidine-1-carbonyl]-4,4a,5,7,8,8a-hexahydropyrido[4,3-b][1,4]oxazin-3-one] stands 33 nM. In experiment [2], `O=C1CO[C@H]2CCN(C(=O)N3CC(C#CC4=CCCC4)C3)C[C@H]2N1` [Example 199, (4aR,8aS)-6-[3-[2-(Cyclopenten-1-yl)ethynyl]azetidine-1-carbonyl]-4,4a,5,7,8,8a-hexahydropyrido[4,3-b][1,4]oxazin-3-one] showed an IC50 of 107 nM. `O=C1CO[C@H]2CCN(C(=O)N3CC(C#Cc4ccc(Cl)cc4Cl)C3)C[C@H]2N1` [Example 134, (+)-(4aR,8aS)-6-(3-((2,4-Dichlorophenyl)ethynyl)azetidine-1-carbonyl)hexahydro-2H-pyrido[4,3-b][1,4]oxazin-3(4H)-one]: the IC50 in experiment [2] stood at 5 nM. The same measure, in the same setting: under `O=C1CO[C@H]2CCN(C(=O)N3CC(C#Cc4ccc(F)cc4Cl)C3)C[C@H]2N1` [Example 135, (+)-(4aR,8aS)-6-[3-[2-(2-Chloro-4-fluorophenyl)ethynyl]azetidine-1-carbonyl]-4,4a,5,7,8,8a-hexahydropyrido[4,3-b][1,4]oxazin-3-one] stands 13 nM.
